Results as given in paper PMC5428521, “Identification of a Novel, Small Molecule Partial Agonist for the Cyclic AMP Sensor, EPAC1” (Scientific Reports, 2017).
Read-outs that look alike come from different tables or passages of the source.

Assays:
EPAC1-CNB [1] = target: T1, EPAC1-CNB (Homo sapiens, UniProt O95398); conditions: published Kd values shown for comparison; cited from earlier work
T1 construct: EPAC1-CNB (amino acids 169–318 of EPAC1); made in house; host or cells: BL-21 Escherichia coli (pGEX-6P-1)
T1 sequence (O95398 169-318 isoform O95398-3): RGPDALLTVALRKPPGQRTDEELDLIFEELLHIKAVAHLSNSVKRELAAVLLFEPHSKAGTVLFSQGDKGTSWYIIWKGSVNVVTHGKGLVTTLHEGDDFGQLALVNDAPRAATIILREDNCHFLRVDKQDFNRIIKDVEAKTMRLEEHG

EPAC1-CNB [2] = target: T1, EPAC1-CNB; assay: 8-NBD-cAMP competition assay with EPAC1-CNB; type: binding
Experimental: Optimisation of assay conditions was performed in 96 well black assay plates (Greiner). Comparison of reference molecules, dose response curves and pilot screen were done in black, low volume 384 assay plates (Greiner). Liquids were dispensed using a Biomek Fx laboratory automation workstation with a 96-multichannel pipetting head (Beckman Coulter) for optimisation, whereas the Echo® Liquid Handler (Labcyte) and Wellmate automated dispenser (Thermo Matrix) were employed for pilot screens (see library screening).
This was done using the optimised assay conditions developed during the study. Library compounds were transferred from pre-prepared, 1000x stock Echo® 384 LDV source plates (Labcyte) into black, low volume 384 assay plates (Greiner) at 25 nl volumes, using an Echo® Liquid Handler (Labcyte), maintaining 0.1–1% DMSO throughout. EPAC1-CNB (0.8 µM) was immediately added using a Wellmate automated dispenser (Thermo Matrix). Plates were centrifuged at 800 rpm, 10 s, and then incubated for 30 minutes, RT, to promote compound-protein complex formation. […] The assay was incubated at room temperature and the fluorescence intensity at 480/535 nm (ex/em) was measured after 4–15 hours using the Envision plate reader.

GST = GST (Schistosoma japonicum, UniProt P08515); assay: Ligand observed NMR (1D and waterLOGSY) with GST alone; type: binding; conditions: compound 50 µM, GST 2.5 µM
From the text: (§1) Given that I942 seems to exert selective agonist properties against EPAC1, but not EPAC2, we next sought to validate whether our isolated ligands can interact with EPAC1 and EPAC2. Ligand observed nuclear magnetic resonance (NMR) is a valuable tool for the identification and validation of small molecule ligands. We therefore used one dimensional proton (1D) and water-ligand observed by gradient spectroscopy (waterLOGSY) NMR to confirm the ability of I942 and I178 to bind to the purified CNBs of EPAC1 and EPAC2, in comparison with the commercially available EPAC1 antagonist, ESI-09[32]. In order to assess ligand/CNB interaction, 1D and waterLOGSY experiments were performed on each compound (50 µM) in the presence or absence of 2.5 µM EPAC-CNB. In the absence of protein, each test compound produced a well-resolved 1D spectrum and a region of each spectrum was chosen to display distinctive spectral peaks originating from the ligand (Fig. 6). In the absence of protein, the corresponding waterLOGSY peaks were small, or absent, due to the negligible signal produced by saturation transfer from water to the freely tumbling small molecule. […] In waterLOGSY spectra, protein-mediated saturation transfer can only occur if the protein-ligand complex has a substantial lifetime. […]
(§2) (A) One dimensional proton (1D) and waterLOGSY (WL) spectra were performed on samples containing hit compound I942 (50 µM) in the absence and presence of EPAC1-CNB, EPAC2-CNB or GST alone, as indicated (2.5 µM). […] Interaction between compound and protein was assessed through comparison of the compound alone and protein-compound sample spectra. […]
(§3) All NMR spectra were recorded on a Bruker AVANCE IIIHD 600 spectrometer equipped with a TCI cryoprobe at 285 K. Test compounds were prepared in deuterated DMSO and diluted to given experimental concentrations in NMR buffer (20 mM Na2PO4, pH 7.0, 50 mM NaCl, 0.1% (w/v) NaN3, 5% (v/v) D2O) with a final DMSO concentration below 0.1%. […] One dimensional proton (1D) and waterLOGSY spectra were recorded for all compounds tested, using pulse sequences as previously described. […]

EPAC2-CNB = target: T2, EPAC2-CNB (Mus musculus, UniProt Q9EQZ6); assay: Ligand observed NMR (1D and waterLOGSY) with EPAC2-CNB; type: binding; conditions: compound 50 µM, protein 2.5 µM
T2 construct: EPAC2-CNB (amino acids 304–453 of EPAC2); made in house; host or cells: BL-21 Escherichia coli (pGEX-6P-1)
T2 sequence (Q9EQZ6 304-453 isoform Q9EQZ6-3): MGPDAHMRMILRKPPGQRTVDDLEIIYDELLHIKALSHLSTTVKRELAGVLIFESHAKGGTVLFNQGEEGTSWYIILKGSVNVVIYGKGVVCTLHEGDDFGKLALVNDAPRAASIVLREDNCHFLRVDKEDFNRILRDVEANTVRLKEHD
From the text: as §1, §2, §3

EPAC1-CNB [3] = target: T1, EPAC1-CNB; assay: Ligand observed NMR (1D and waterLOGSY) with EPAC1-CNB; type: binding; conditions: compound 50 µM, protein 2.5 µM
From the text: as §1, §2, §3

protein kinase A (PKA) = assay: PKA kinase activity assay in HEK293T cell extracts; type: biochemical; conditions: 1 mM cAMP, compound 0.1 to 100 µM
Experimental: PKA activity was measured directly in cell extracts using the PKA Kinase Activity Assay Kit (Abcam) following the manufacturer's instructions. […] Cells were washed in ice-cold PBS containing phosphatase inhibitors, scrapped into Eppendorf tubes and centrifuged at 200 × g at 4 °C for 5 minutes. Supernatants were discarded and the cell pellet was re-suspended in Complete Lysis Buffer containing 1 mM DTT, 1 mM PMSF and protease inhibitor cocktail (Roche) and then incubated for 10 minutes on ice (on the rocking platform) followed by vortex and centrifugation at […] at 4 °C for 20 minutes. Cell extracts were then transferred to fresh Eppendorf tubes, assayed for protein content and then stored at -80 °C. […] Next, 10 μl of ATP was added to each well and incubated at 30 °C for 90 min, with gentle shaking. The reaction was stopped by aspirating the contents of each well and then 40 μl of PKA phosphospecific substrate antibody was added to each well and then the plate was covered with plastic wrap and incubated at room temperature for 60 min (with gentle shaking every 20 min). […] Fluorescence was then measured at 480/530 nm. […] PKA activity was then measured in the cell extracts using an ELISA assay according to the manufactures instructions. […]

[4] = target: T3, EPAC1 (amino acids 149–881) (Homo sapiens, UniProt O95398); assay: In vitro GEF activity assay (MANT-GDP dissociation from Rap1), EPAC1; type: biochemical; conditions: 500 μM compound, 500 μM cAMP
T3 construct: recombinant EPAC1 (amino acids 149–881); made in house; host or cells: bacteria
T3 sequence (O95398 149-881 isoform O95398-3): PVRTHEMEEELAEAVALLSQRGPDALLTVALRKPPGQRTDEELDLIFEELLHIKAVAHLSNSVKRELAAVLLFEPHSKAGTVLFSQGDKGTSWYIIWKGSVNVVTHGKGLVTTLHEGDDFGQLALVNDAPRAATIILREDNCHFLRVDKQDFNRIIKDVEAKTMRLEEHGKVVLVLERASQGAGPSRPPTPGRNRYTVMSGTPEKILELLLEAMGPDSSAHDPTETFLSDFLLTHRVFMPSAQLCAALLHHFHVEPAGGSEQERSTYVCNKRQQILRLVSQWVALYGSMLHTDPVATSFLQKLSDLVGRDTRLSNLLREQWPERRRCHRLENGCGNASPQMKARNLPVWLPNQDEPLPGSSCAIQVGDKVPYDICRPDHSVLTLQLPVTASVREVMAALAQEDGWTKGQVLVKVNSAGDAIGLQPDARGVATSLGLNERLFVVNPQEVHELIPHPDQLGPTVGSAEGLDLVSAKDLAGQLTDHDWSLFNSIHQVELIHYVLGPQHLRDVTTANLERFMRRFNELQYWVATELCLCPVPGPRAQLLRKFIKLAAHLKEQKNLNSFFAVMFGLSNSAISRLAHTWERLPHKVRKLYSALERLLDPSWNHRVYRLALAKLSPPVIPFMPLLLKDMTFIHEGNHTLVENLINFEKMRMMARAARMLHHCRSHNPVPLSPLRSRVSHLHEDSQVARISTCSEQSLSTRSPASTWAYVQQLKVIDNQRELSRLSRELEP
Experimental: For this, we used the well-characterised EPAC GEF activity assay. The assay is based on the EPAC-stimulated dissociation of fluorescent MANT-GDP from recombinant Rap1 in the presence of excess non-fluorescent nucleotide.
The data are fitted as single exponential decay with off-set (red lines) to obtain the rate constants kobs, as shown in (b).
EPAC1 and EPAC2 in vitro GEF activities were calculated as previously described. Briefly, recombinant EPAC1 (amino acids 149–881) or EPAC2 (amino acids 280–993) were incubated at 100 nM with recombinant Rap1 (200 nM) preloaded with the fluorescent GDP analogue 2′/3′-O-(N-Methylanthraniloyl)guanosine 5-diphosphate (MANT-GDP) in the presence of 20 μM GDP and then the fluorescence intensity was measured at 360/450 nm (ex/em) over time. […] AC50 or IC50 values were determined from the plots of kobs against the concentration of the agonist and antagonist, respectively Table 1.

[5] = 8-NBD-cAMP 62.5 nM, EPAC1-CNB 0.8 µM, known competitor compounds, read-out: IC50, inhibition of 8-NBD-cAMP fluorescence
[6] = 7-point dose response, 75 µM top concentration, 0.75% DMSO, read-out: IC50, 8-NBD-cAMP binding assay

Sequence of GST (P08515 whole entry): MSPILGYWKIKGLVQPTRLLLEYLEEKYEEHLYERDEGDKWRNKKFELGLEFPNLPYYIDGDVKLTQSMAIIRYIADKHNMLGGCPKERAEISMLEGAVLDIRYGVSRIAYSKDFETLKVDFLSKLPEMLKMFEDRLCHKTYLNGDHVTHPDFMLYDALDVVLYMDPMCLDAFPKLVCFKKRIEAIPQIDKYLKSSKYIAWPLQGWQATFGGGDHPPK

Row | Compound | Kd (EPAC1-CNB [1]) | IC50 (EPAC1-CNB [2]; [5]) | IC50 (EPAC1-CNB [2]; [6]) | other results
1 | Nc1ncnc2c1nc(Sc1ccc(Cl)cc1)n2[C@@H]1O[C@@H]2COP(=O)(O)O[C@H]2[C@H]1O [8-CPT, 8-CPT-cAMP, reference compound] | 0.04 µM | 0.53 µM | – | –
2 | CC(C)(C)c1cc(C(=O)C(C#N)=NNc2cccc(Cl)c2)no1 [ESI-09, 3-(5-tert-butyl-isoxazol-3-yl)-2-[(3-chloro-phenyl)-hydrazonol]-3-oxo-propionitrile, reference compound] | – | – | – | NMR interaction with GST alone (GST): may interact non-specifically with GST; NMR interaction (EPAC2-CNB): attenuated; NMR interaction (EPAC1-CNB [3]): attenuated
3 | O=S(=O)(NCCNC/C=C/c1ccc(Br)cc1)c1cccc2cnccc12 [H-89, reference compound] | – | – | – | effect on PKA activity induced by cAMP (protein kinase A (PKA)): dose-dependent inhibition
4 | CC(=O)Nc1cccc(OCC(=O)NS(=O)(=O)c2ccc(C)cc2)c1 [I516, 2-[3-(acetylamino)phenoxy]-N-[(4-methylphenyl)sulfonyl]acetamide] | – | – | > 75 µM | inhibition of cAMP-induced EPAC1 activity [4]: no detectable inhibitory effect
5 | CO[C@@H]1[C@@H]2OP(=O)(O)OC[C@H]2O[C@H]1n1c(Sc2ccc(Cl)cc2)nc2c(N)ncnc21 [compound 007, 8-pCPT-2′-O-Me-cAMP, reference compound] | 0.63 µM | 1.67 µM | – | –
6 | N-[(4-chlorophenyl)sulfonyl]-2-(1-naphthyloxy)acetamide [I288] | – | – | ~70 µM | –
